Measured values reported in patent publication US8580941B2, “Epididymal lipocalin gene and uses thereof” (Vanderbilt University, priority 2000, dated 2013).

Test system: mEP17 protein
Assay: Regulation of mEP17 protein expression (Western blotting and immunohistochemistry) in treated mice
Assay type: in vivo, mouse
Excerpt: The regulation of mEP17 protein expression was investigated using Western blotting and immunohistochemistry in castrated mice, castrated testosterone supplemented mice, unilateral castrated mice, unilateral cryptorchid mice, and busulphan-treated mice. As previously observed at the mRNA level (FIGS. 15A-15C), mEP17 protein disappeared from the initial segment two days after bilateral castration and was not restored by testosterone treatment. Similarly, after unilateral castration, mEP17 protein disappeared from the castrated side, but not from the non-castrated side.
To determine whether germ cell-associated testicular factors can regulate mEP17, spermatogenesis was disrupted using cryptorchidism or busulphan treatment. One month following cryptorchidism, mEP17 protein was not detected in the initial segment of the cryptorchid epididymis but was detected at normal levels in the scrotal epididymis. In cryptorchidism, the testis and the epididymis are exposed to abdominal temperature. To distinguish the effects of abdominal temperature on the testis or epididymis, spermatogenesis was also disrupted by busulphan treatment.

## CS(=O)(=O)OCCCCOS(C)(=O)=O [busulphan]
busulphan-treated mice, following a 35-day treatment (disruption of spermatogenesis)
  level of mEP17 protein compared to untreated controls: drastically reduced

## C[C@]12CC[C@H]3[C@@H](CCC4=CC(=O)CC[C@@]43C)[C@@H]1CC[C@@H]2O [testosterone]
Castrated testosterone supplemented mice, protein disappeared two days after bilateral castration
  mEP17 protein in the initial segment of the epididymis after testosterone treatment: not restored
